From patent US20230365533A1, “BICYCLOHEPTANE PYRROLIDINE OREXIN RECEPTOR AGONISTS” (MERCK SHARP & DOHME CORP., priority 2021, published 2023)

Molecular target: T1, human OX2R (Homo sapiens, UniProt O43614)
T1 construct: expressed in transfected cells; host or cells: CHO (Chinese hamster ovary) cells, grown under G418 selection
T1 sequence (O43614 1-444): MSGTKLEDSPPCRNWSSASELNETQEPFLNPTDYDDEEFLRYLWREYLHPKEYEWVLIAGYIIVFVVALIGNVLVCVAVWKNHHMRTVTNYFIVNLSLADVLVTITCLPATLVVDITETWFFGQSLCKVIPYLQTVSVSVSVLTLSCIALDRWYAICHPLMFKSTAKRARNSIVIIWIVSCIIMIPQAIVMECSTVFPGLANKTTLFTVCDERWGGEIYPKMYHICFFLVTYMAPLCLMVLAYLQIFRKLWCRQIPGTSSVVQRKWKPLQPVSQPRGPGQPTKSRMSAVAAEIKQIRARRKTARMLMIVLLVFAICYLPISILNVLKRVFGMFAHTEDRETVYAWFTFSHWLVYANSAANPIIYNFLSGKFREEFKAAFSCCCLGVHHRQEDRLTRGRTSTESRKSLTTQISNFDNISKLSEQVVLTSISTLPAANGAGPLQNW
Assay: IPOne (IP-1) orexin receptor agonist assay in CHO cells expressing human OX2R
Format: cell-based
Conditions: IPOne assay, CHO cells expressing human OX2R, 2 hours incubation; read-out: hoX2R_IP IC50
From the text: The utility of the compounds in accordance with the present invention as orexin receptor OX1R and/or OX2R agonists may be readily determined without undue experimentation by methodology well known in the art. Both the OX1R and/or OX2R G-coupled protein receptors (GPCRs) couple through the Gaq signaling pathway, which ultimately promotes calcium mobilization via inositol triphosphate (IP3) production. The half-life of IP-3 is relatively short, being rapidly metabolized to inositol monophosphate (IP-1), which can be readily detected using a commercially available assay kit (IP-One; Cisbio; cat #621PAPEC) coupled with a cell line expressing the target receptor(s) of interest. The utility of the compounds in accordance with the present invention as orexin receptor OX1R and/or OX2R agonists may be determined utilizing this assay.
In a typical experiment, the OX1 and OX2 receptor agonist activity is determined in accordance with the following general experimental method. Chinese hamster ovary (CHO) cells expressing human OX1R and/or the human OX2R were grown in Iscove's modified DMEM containing glutaMAX™, 1% G418, 100 U/mL penicillin, 100 μg/mL streptomycin and 10% heat-inactivated qualified fetal bovine serum (FBS). The OX2R cells were seeded at 10,000 cells/well/50 μL and the OX1R cells were seeded at 20,000 cells/well/50 μL into 384-well white tissue culture plates (Greiner; cat #781080). All cell/media reagents were from GIBCO-Invitrogen Corp. The seeded cell plate(s) were incubated at 37° C. with 5% CO2 and 85% humidity for 20-24 hours. On the day of the assay, assay-ready compound plates were prepared using an acoustic liquid handler (ECHO; Labcyte), which dispensed sufficient volume of test compound stock (10 mM in DMSO) or 100% DMSO to prepare 10 point, ½-log dilutions in a final volume of 202.5 nL/well in all test wells of a 384-well diamond plate (Labcyte). Following completion of assay-ready plates, importantly, the next three steps were performed with minimal delay: 1) 20 μl of 1×stimulation buffer was added to the compound plate using a Multidrop Combi (small cassette, Thermo Fisher Scientific cat #24073290); 2) culture medium was removed from the cell plate using the Bluewasher plate washer (gentle spin; BlueCatBio); 3) 14 μl of compound/stimulation buffer mixture was added to the cell plate using a Bravo liquid handler (Agilent) prior to incubating cell plates at 37° C. with 5% CO2 and 85% humidity for 1 or 2 hours (OX1R and OX2R, respectively). During this incubation, IP-one detection reagents were prepared (38:1:1 lysis buffer:D2:AB-cryptate reagents). Six μL of mixed detection reagents were added to the cell plate using a Multidrop Combi (small cassette, Thermo Fisher Scientific cat #24073290) and incubated 60 minutes at room temperature in the dark. Fluorescence signal was detected using an Envision plate reader (Perkin Elmer) [LANCE/DELFIA Dual Enh (Em: APC 665; Ex: Cy5 620)].
For each compound, data were fit to a four parameter logistic fit (ActivityBase software) and the EC50 was reported as the inflection point of the resulting curve. Percent effect for each test compound was determined as the percentage of sample raw value/mean max effect, where the mean max effect was derived from the mean raw value of 32 control wells per assay plate (using Orexin A (cat #003-30) at 1 μM for human OX1R and a reference compound at 1 uM with 100% activity previously established by comparison to Orexin A for human OX2R). The intrinsic orexin receptor agonist activity of a compound which may be used in the present invention may be determined by these assays.

| SMILES | IC50 [nM] |
| --- | --- |
| COC(=O)N1[C@H](C)C[C@H](NS(=O)(=O)C(F)(F)F)[C@@H]1CO[C@H]1CC[C@@]2(c3ncc(F)cn3)C[C@H]2C1 [Example 31, methyl (2R,3S,5R)-2-((((1S,3S,6R)-6-(5-fluoropyrimidin-2-yl)bicyclo[4.1.0]heptan-3-yl)oxy)methyl)-5-methyl-3-((trifluoromethyl)sulfonamido)pyrrolidine-1-carboxylate] | 3 |
| CCCS(=O)(=O)N[C@H]1C[C@@H](C)N(C(=O)OC)[C@H]1CO[C@H]1CC[C@@]2(c3ncc(F)cn3)C[C@H]2C1 [Example 33, methyl (2R,3S,5R)-2-((((1S,3S,6R)-6-(5-fluoropyrimidin-2-yl)bicyclo[4.1.0]heptan-3-yl)oxy)methyl)-5-methyl-3-(propylsulfonamido)pyrrolidine-1-carboxylate] | 5.4 |
| COC(=O)N1[C@H](C)C[C@H](NS(=O)(=O)Cc2ccccc2)[C@@H]1CO[C@H]1CC[C@@]2(c3ncc(F)cn3)C[C@H]2C1 [Example 34, methyl (2R,3S,5R)-2-((((1S,3S,6R)-6-(5-fluoropyrimidin-2-yl)bicyclo[4.1.0]heptan-3-yl)oxy)methyl)-5-methyl-3-((phenylmethyl)sulfonamido)pyrrolidine-1-carboxylate] | 34.4 |
| COC(=O)N1[C@H](C)C[C@H](NS(=O)(=O)CC(C)C)[C@@H]1CO[C@H]1CC[C@@]2(c3ncc(F)cn3)C[C@H]2C1 [Example 35, methyl (2R,3S,5R)-2-((((1S,3S,6R)-6-(5-fluoropyrimidin-2-yl)bicyclo[4.1.0]heptan-3-yl)oxy)methyl)-5-methyl-3-((2-methylpropyl)sulfonamido)pyrrolidine-1-carboxylate] | 46.5 |
| CCS(=O)(=O)N[C@H]1C[C@@H](C)N(C(=O)OC)[C@H]1CO[C@H]1CC[C@@]2(c3ncc(F)cn3)C[C@H]2C1 [Example 36, methyl (2R,3S,5R)-3-(ethylsulfonamido)-2-((((1S,3S,6R)-6-(5-fluoropyrimidin-2-yl)bicyclo[4.1.0]heptan-3-yl)oxy)methyl)-5-methylpyrrolidine-1-carboxylate] | 0.93 |
| COC(=O)N1[C@H](C)C[C@H](NS(=O)(=O)CCl)[C@@H]1CO[C@H]1CC[C@@]2(c3ncc(F)cn3)C[C@H]2C1 [Example 37, methyl (2R,3S,5R)-3-((chloromethyl)sulfonamido)-2-((((1S,3S,6R)-6-(5-fluoropyrimidin-2-yl)bicyclo[4.1.0]heptan-3-yl)oxy)methyl)-5-methylpyrrolidine-1-carboxylate] | 2.1 |
| COC(=O)N1[C@H](C)C[C@H](NS(=O)(=O)C(C)C)[C@@H]1CO[C@H]1CC[C@@]2(c3ncc(F)cn3)C[C@H]2C1 [Example 38, methyl (2R,3S,5R)-2-((((1S,3S,6R)-6-(5-fluoropyrimidin-2-yl)bicyclo[4.1.0]heptan-3-yl)oxy)methyl)-5-methyl-3-((1-methylethyl)sulfonamido)pyrrolidine-1-carboxylate] | 0.9 |
| COC(=O)N1[C@H](C)C[C@H](NS(=O)(=O)N2CCC2)[C@@H]1CO[C@H]1CC[C@@]2(c3ncc(F)cn3)C[C@H]2C1 [Example 39, methyl (2R,3S,5R)-3-(azetidine-1-sulfonamido)-2-((((1S,3S,6R)-6-(5-fluoropyrimidin-2-yl)bicyclo[4.1.0]heptan-3-yl)oxy)methyl)-5-methylpyrrolidine-1-carboxylate] | 2 |
| COC(=O)N1[C@H](C)C[C@H](NS(=O)(=O)C2COC2)[C@@H]1CO[C@H]1CC[C@@]2(c3ncc(F)cn3)C[C@H]2C1 [Example 40, methyl (2R,3S,5R)-2-((((1S,3S,6R)-6-(5-fluoropyrimidin-2-yl)bicyclo[4.1.0]heptan-3-yl)oxy)methyl)-5-methyl-3-(oxetane-3-sulfonamido)pyrrolidine-1-carboxylate] | 4.4 |
| CCC(C)S(=O)(=O)N[C@H]1C[C@@H](C)N(C(=O)OC)[C@H]1CO[C@H]1CC[C@@]2(c3ncc(F)cn3)C[C@H]2C1 (stereo partly drawn) [Example 41, methyl (2R,3S,5R)-2-((((1S,3S,6R)-6-(5-fluoropyrimidin-2-yl)bicyclo[4.1.0]heptan-3-yl)oxy)methyl)-5-methyl-3-((1-methylpropyl)sulfonamido)pyrrolidine-1-carboxylate] | 8 |
| COC(=O)N1[C@H](C)C[C@H](NS(=O)(=O)C2CC2)[C@@H]1CO[C@H]1CC[C@@]2(c3ncc(F)cn3)C[C@H]2C1 [Example 42, methyl (2R,3S,5R)-3-(cyclopropanesulfonamido)-2-((((1S,3S,6R)-6-(5-fluoropyrimidin-2-yl)bicyclo[4.1.0]heptan-3-yl)oxy)methyl)-5-methylpyrrolidine-1-carboxylate] | 3 |
| COC(=O)N1[C@H](C)C[C@H](NS(=O)(=O)N2CCC2)[C@@H]1CO[C@@H]1CC[C@]2(c3ncc(F)cn3)C[C@@H]2C1 [Example 43, methyl (2R,3S,5R)-3-(azetidine-1-sulfonamido)-2-((((1R,3R,6S)-6-(5-fluoropyrimidin-2-yl)bicyclo[4.1.0]heptan-3-yl)oxy)methyl)-5-methylpyrrolidine-1-carboxylate] | 49.3 |
| COC(=O)N1[C@H](C)C[C@H](NS(=O)(=O)C(F)(F)F)[C@@H]1CO[C@@H]1CC[C@]2(c3ncc(F)cn3)C[C@@H]2C1 [Example 44, methyl (2R,3S,5R)-2-((((1R,3R,6S)-6-(5-fluoropyrimidin-2-yl)bicyclo[4.1.0]heptan-3-yl)oxy)methyl)-5-methyl-3-((trifluoromethyl)sulfonamido)pyrrolidine-1-carboxylate] | 17.4 |
| COC(=O)N1[C@H](C)C[C@H](NS(=O)(=O)Cc2ccccc2)[C@@H]1CO[C@@H]1CC[C@]2(c3ncc(F)cn3)C[C@@H]2C1 [Example 45, methyl (2R,3S,5R)-2-((((1R,3R,6S)-6-(5-fluoropyrimidin-2-yl)bicyclo[4.1.0]heptan-3-yl)oxy)methyl)-5-methyl-3-((phenylmethyl)sulfonamido)pyrrolidine-1-carboxylate] | 173 |
| COC(=O)N1[C@H](C)C[C@H](NS(=O)(=O)C(C)C)[C@@H]1CO[C@@H]1CC[C@]2(c3ncc(F)cn3)C[C@@H]2C1 [Example 46, methyl (2R,3S,5R)-2-((((1R,3R,6S)-6-(5-fluoropyrimidin-2-yl)bicyclo[4.1.0]heptan-3-yl)oxy)methyl)-5-methyl-3-((1-methylethyl)sulfonamido)pyrrolidine-1-carboxylate] | 13.4 |
| CCS(=O)(=O)N[C@H]1C[C@@H](C)N(C(=O)OC)[C@H]1CO[C@@H]1CC[C@]2(c3ncc(F)cn3)C[C@@H]2C1 [Example 47, methyl (2R,3S,5R)-3-(ethylsulfonamido)-2-((((1R,3R,6S)-6-(5-fluoropyrimidin-2-yl)bicyclo[4.1.0]heptan-3-yl)oxy)methyl)-5-methylpyrrolidine-1-carboxylate] | 13.8 |
| COC(=O)N1[C@H](C)C[C@H](NS(=O)(=O)C(F)F)[C@@H]1CO[C@H]1CC[C@@]2(c3ncc(F)cn3)C[C@H]2C1 [Example 48, methyl (2R,3S,5R)-3-((difluoromethyl)sulfonamido)-2-((((1S,3S,6R)-6-(5-fluoropyrimidin-2-yl)bicyclo[4.1.0]heptan-3-yl)oxy)methyl)-5-methylpyrrolidine-1-carboxylate] | 1.4 |
